In patent publication US20250249056A1, “CANCER THERAPIES COMPRISING A NUCLEAR EXPORT INHIBITOR AND AN ONCOLYTIC VIRUS” (priority 2022, published 2025):
Read-outs that look alike come from different tables or passages of the source.

System: Colo205 cells
Assay type: cell-based, human
[1] = selinexor-treated nucleus vs MYXV + selinexor-treated nucleus

O=C(/C=C\n1cnc(-c2cc(C(F)(F)F)cc(C(F)(F)F)c2)n1)NNc1cnccn1 [selinexor]
Differential protein expression, NPAT (Q14207, selinexor-treated cytoplasm vs control cytoplasm): 0.01
Differential protein expression, DSC3 (Q14574, selinexor-treated cytoplasm vs control cytoplasm): 2.069
Differential protein expression, NCOA6 (Q14686, selinexor-treated cytoplasm vs control cytoplasm): 0.01
Differential protein expression, SETDB1 (Q15047, selinexor-treated cytoplasm vs control cytoplasm): 0.01
Differential protein expression, RRS1 (Q15050, selinexor-treated cytoplasm vs control cytoplasm): 2.155
Differential protein expression, TOMM20 (Q15388, selinexor-treated cytoplasm vs control cytoplasm): 2.862
Differential protein expression, CDSN (Q15517, selinexor-treated cytoplasm vs control cytoplasm): 3.988
Differential protein expression, TAF7 (Q15545, selinexor-treated cytoplasm vs control cytoplasm): 0.402
Differential protein expression, TAF1C (Q15572, selinexor-treated cytoplasm vs control cytoplasm): 100
Differential protein expression, ELF2 (Q15723, selinexor-treated cytoplasm vs control cytoplasm): 0.01
Differential protein expression, M11L (Q85295, selinexor-treated cytoplasm vs control cytoplasm): 4.074
Differential protein expression, MYO18A (Q92614, selinexor-treated cytoplasm vs control cytoplasm): 2.026
Differential protein expression, USP6NL (Q92738, selinexor-treated cytoplasm vs control cytoplasm): 100
Differential protein expression, TAF15 (Q92804, selinexor-treated cytoplasm vs control cytoplasm): 2.706
Differential protein expression, KAT5 (Q92993, selinexor-treated cytoplasm vs control cytoplasm): 7.08
Differential protein expression, TEAD3 (Q99594, selinexor-treated cytoplasm vs control cytoplasm): 100
Differential protein expression, SLC29A1 (Q99808, selinexor-treated cytoplasm vs control cytoplasm): 0.406
Differential protein expression, selinexor-treated nucleus vs control nucleus (protein AAAS (Q9NRG9)): 0.477
Differential protein expression, selinexor-treated nucleus vs control nucleus (protein ABHD10 (Q9NUJ1)): 2.289
Differential protein expression, selinexor-treated nucleus vs control nucleus (protein ACAD10 (Q6JQN1)): 2.239
Differential protein expression, selinexor-treated nucleus vs control nucleus (protein BRIX1 (Q8TDN6)): 0.475
Differential protein expression, selinexor-treated nucleus vs control nucleus (protein CALML5 (Q9NZT1)): 2.328
Differential protein expression, selinexor-treated nucleus vs control nucleus (protein CASP9 (P55211)): 100
Differential protein expression, selinexor-treated nucleus vs control nucleus (protein CDK3 (Q00526)): 0.472
Differential protein expression, selinexor-treated nucleus vs control nucleus (protein CHMP2B (Q9UQN3)): 2.092
Differential protein expression, selinexor-treated nucleus vs control nucleus (protein CIB1 (Q99828)): 0.474
Differential protein expression, selinexor-treated nucleus vs control nucleus (protein CIT (O14578)): 0.498
Differential protein expression, selinexor-treated nucleus vs control nucleus (protein COA1 (Q9GZY4)): 0.481
Differential protein expression, selinexor-treated nucleus vs control nucleus (protein CSTA (P01040)): 2.196
Differential protein expression, selinexor-treated nucleus vs control nucleus (protein ECHDC1 (Q9NTX5)): 2.716
Differential protein expression, selinexor-treated nucleus vs control nucleus (protein EFNB1 (P98172)): 100
Differential protein expression, selinexor-treated nucleus vs control nucleus (protein ERLIN2 (O94905)): 0.498
Differential protein expression, selinexor-treated nucleus vs control nucleus (protein F5 (P12259)): 100
Differential protein expression, selinexor-treated nucleus vs control nucleus (protein FBLIM1 (Q8WUP2)): 0.481
Differential protein expression, selinexor-treated nucleus vs control nucleus (protein FHIP1B (Q8N612)): 100
Differential protein expression, selinexor-treated nucleus vs control nucleus (protein FN3K (Q9H479)): 2.007
Differential protein expression, selinexor-treated nucleus vs control nucleus (protein FOS (P01100)): 2.044
Differential protein expression, selinexor-treated nucleus vs control nucleus (protein FXR1 (Q9UM11)): 2.17
Differential protein expression, selinexor-treated nucleus vs control nucleus (protein GEMIN5 (Q8TEQ6)): 0.496
Differential protein expression, selinexor-treated nucleus vs control nucleus (protein GEMIN6 (Q8WXD5)): 0.473
Differential protein expression, selinexor-treated nucleus vs control nucleus (protein GNL2 (Q13823)): 2.38
Differential protein expression, selinexor-treated nucleus vs control nucleus (protein H2AC1 (Q96QV6)): 2.215
Differential protein expression, selinexor-treated nucleus vs control nucleus (protein H2AC4 (P04908)): 2.544
Differential protein expression, selinexor-treated nucleus vs control nucleus (protein H2AC6 (Q93077)): 2.544
Differential protein expression, selinexor-treated nucleus vs control nucleus (protein H2AC18 (Q6FI13)): 2.322
Differential protein expression, selinexor-treated nucleus vs control nucleus (protein H2AC20 (Q16777)): 2.322
Differential protein expression, selinexor-treated nucleus vs control nucleus (protein H2AC21 (Q8IUE6)): 2.215
Differential protein expression, selinexor-treated nucleus vs control nucleus (protein H2AC25 (Q7L7L0)): 2.544
Differential protein expression, selinexor-treated nucleus vs control nucleus (protein H2AX (P16104)): 2.215
Differential protein expression, selinexor-treated nucleus vs control nucleus (protein H2BK1 (A0A2R8Y619)): 2.69
Differential protein expression, selinexor-treated nucleus vs control nucleus (protein H3-3A (P84243)): 2.584
Differential protein expression, selinexor-treated nucleus vs control nucleus (protein HK1 (P19367)): 0.496
Differential protein expression, selinexor-treated nucleus vs control nucleus (protein HNRNPA1L2 (Q32P51)): 2.623
Differential protein expression, selinexor-treated nucleus vs control nucleus (protein KIF23 (Q02241)): 0.492
Differential protein expression, selinexor-treated nucleus vs control nucleus (protein KRT1 (P04264)): 2.317
Differential protein expression, selinexor-treated nucleus vs control nucleus (protein KRT7 (P08729)): 2.576
Differential protein expression, selinexor-treated nucleus vs control nucleus (protein KRT14 (P02533)): 2.157
Differential protein expression, selinexor-treated nucleus vs control nucleus (protein KRT24 (Q2M2I5)): 2.19
Differential protein expression, selinexor-treated nucleus vs control nucleus (protein KRT25 (Q7Z3Z0)): 2.158
Differential protein expression, selinexor-treated nucleus vs control nucleus (protein KRT27 (Q7Z3Y8)): 2.158
Differential protein expression, selinexor-treated nucleus vs control nucleus (protein KRT28 (Q7Z3Y7)): 2.058
Differential protein expression, selinexor-treated nucleus vs control nucleus (protein LGALS7 (P47929)): 2.013
Differential protein expression, selinexor-treated nucleus vs control nucleus (protein LRRC58 (Q96CX6)): 2.747
Differential protein expression, selinexor-treated nucleus vs control nucleus (protein MAFF (Q9ULX9)): 2.133
Differential protein expression, selinexor-treated nucleus vs control nucleus (protein MAGED2 (Q9UNF1)): 2.271
Differential protein expression, selinexor-treated nucleus vs control nucleus (protein MAN1A1 (P33908)): 100
Differential protein expression, selinexor-treated nucleus vs control nucleus (protein MICOS13 (Q5XKP0)): 0.483
Differential protein expression, selinexor-treated nucleus vs control nucleus (protein MTX1 (Q13505)): 0.499
Differential protein expression, selinexor-treated nucleus vs control nucleus (protein NDE1 (Q9NXR1)): 0.484
Differential protein expression, selinexor-treated nucleus vs control nucleus (protein NDEL1 (Q9GZM8)): 0.481
Differential protein expression, selinexor-treated nucleus vs control nucleus (protein NDUFA5 (Q16718)): 0.488
Differential protein expression, selinexor-treated nucleus vs control nucleus (protein NDUFA11 (Q86Y39)): 0.492
Differential protein expression, selinexor-treated nucleus vs control nucleus (protein NDUFS3 (075489)): 0.478
Differential protein expression, selinexor-treated nucleus vs control nucleus (protein NDUFS8 (O00217)): 0.487
Differential protein expression, selinexor-treated nucleus vs control nucleus (protein NFAT5 (O94916)): 2.586
Differential protein expression, selinexor-treated nucleus vs control nucleus (protein NUDT3 (O95989)): 100
Differential protein expression, selinexor-treated nucleus vs control nucleus (protein NXN (Q6DKJ4)): 100
Differential protein expression, selinexor-treated nucleus vs control nucleus (protein OAS1 (P00973)): 2.45
Differential protein expression, selinexor-treated nucleus vs control nucleus (protein OCIAD2 (Q56VL3)): 0.5
Differential protein expression, selinexor-treated nucleus vs control nucleus (protein PAN2 (Q504Q3)): 2.108
Differential protein expression, selinexor-treated nucleus vs control nucleus (protein PAN3 (Q58A45)): 2.073
Differential protein expression, selinexor-treated nucleus vs control nucleus (protein PANK1 (Q8TE04)): 100
Differential protein expression, selinexor-treated nucleus vs control nucleus (protein PATL1 (Q86TB9)): 0.487
Differential protein expression, selinexor-treated nucleus vs control nucleus (protein PAXX (Q9BUH6)): 2.321
Differential protein expression, selinexor-treated nucleus vs control nucleus (protein PHF19 (Q5T6S3)): 0.477
Differential protein expression, selinexor-treated nucleus vs control nucleus (protein PNO1 (Q9NRX1)): 2.639
Differential protein expression, selinexor-treated nucleus vs control nucleus (protein POLR2B (P30876)): 0.486
Differential protein expression, selinexor-treated nucleus vs control nucleus (protein PRDX4 (Q13162)): 2.477
Differential protein expression, selinexor-treated nucleus vs control nucleus (protein RBL2 (Q08999)): 2.063
Differential protein expression, selinexor-treated nucleus vs control nucleus (protein ROCK1 (Q13464)): 2.201
Differential protein expression, selinexor-treated nucleus vs control nucleus (protein RPL10 (P27635)): 0.483
Differential protein expression, selinexor-treated nucleus vs control nucleus (protein RPL10L (Q96L21)): 0.473
Differential protein expression, selinexor-treated nucleus vs control nucleus (protein RPLP1 (P05386)): 0.472
Differential protein expression, selinexor-treated nucleus vs control nucleus (protein RRM1 (P23921)): 0.488
Differential protein expression, selinexor-treated nucleus vs control nucleus (protein RTN4 (Q9NQC3)): 0.491
Differential protein expression, selinexor-treated nucleus vs control nucleus (protein S100A8 (P05109)): 2.396
Differential protein expression, selinexor-treated nucleus vs control nucleus (protein SDAD1 (Q9NVU7)): 2.021
Differential protein expression, selinexor-treated nucleus vs control nucleus (protein SDCBP2 (Q9H190)): 2.735
Differential protein expression, selinexor-treated nucleus vs control nucleus (protein SFXN2 (Q96NB2)): 0.478
Differential protein expression, selinexor-treated nucleus vs control nucleus (protein SFXN5 (Q8TD22)): 0.48
Differential protein expression, selinexor-treated nucleus vs control nucleus (protein SLC12A7 (Q9Y666)): 0.496
Differential protein expression, selinexor-treated nucleus vs control nucleus (protein SLC25A11 (Q02978)): 0.496
Differential protein expression, selinexor-treated nucleus vs control nucleus (protein SLC25A12 (O75746)): 0.483
Differential protein expression, selinexor-treated nucleus vs control nucleus (protein SLC25A17 (O43808)): 0.484
Differential protein expression, selinexor-treated nucleus vs control nucleus (protein SLC25A35 (Q3KQZ1)): 0.474
Differential protein expression, selinexor-treated nucleus vs control nucleus (protein SPG7 (Q9UQ90)): 0.481
Differential protein expression, selinexor-treated nucleus vs control nucleus (protein TDRKH (Q9Y2W6)): 0.492
Differential protein expression, selinexor-treated nucleus vs control nucleus (protein TEAD2 (Q15562)): 0.487
Differential protein expression, selinexor-treated nucleus vs control nucleus (protein TEAD4 (Q15561)): 0.494
Differential protein expression, selinexor-treated nucleus vs control nucleus (protein TMA7 (Q9Y2S6)): 2.251
Differential protein expression, selinexor-treated nucleus vs control nucleus (protein TOMM20 (Q15388)): 0.497
Differential protein expression, selinexor-treated nucleus vs control nucleus (protein TPPP3 (Q9BW30)): 2.549
Differential protein expression, selinexor-treated nucleus vs control nucleus (protein UQCR10 (Q9UDW1)): 0.477
Differential protein expression, selinexor-treated nucleus vs control nucleus (protein VCPIP1 (Q96JH7)): 2.057
Differential protein expression, selinexor-treated nucleus vs control nucleus (protein YBX1 (P67809)): 0.477
Differential protein expression, selinexor-treated nucleus vs control nucleus (protein m090L (D2WN26)): 100
Differential protein expression, selinexor-treated nucleus vs control nucleus (protein m093L (Q9Q8K7)): 0.498
Differential protein expression B2CWA6 m003.1R [1]: 0.145
Differential protein expression B2CWA8 [1]: 0.122
Differential protein expression B2CWB0 [1]: 0.01
Differential protein expression B2CWB2 [1]: 0.055
Differential protein expression B2CWB4 m008.1L [1]: 0.045
Differential protein expression B2CWB5 [1]: 0.036
Differential protein expression B2CWC0 [1]: 0.092
Differential protein expression B2CWC1 m015L [1]: 0.04
Differential protein expression B2CWC6 m020L [1]: 0.191
Differential protein expression B2CWC8 [1]: 0.058
Differential protein expression B2CWD4 m027L [1]: 0.045
Differential protein expression B2CWD6 m029L [1]: 0.023
Differential protein expression B2CWD8 [1]: 0.011
Differential protein expression B2CWE0 m033R [1]: 0.01
Differential protein expression B2CWE1 [1]: 0.047
Differential protein expression B2CWE3 [1]: 0.064
Differential protein expression B2CWF3 m046L [1]: 0.111
Differential protein expression B2CWF4 m047R [1]: 0.039
Differential protein expression B2CWF6 [1]: 0.051
